Experimental data published in PubChem BioAssay AID1259407 (Chemical Carcinogenesis Research Information System (CCRIS), 2018).
Activity calls are given as the source filed them. The rule behind the calls is not given here.

Test system: CCRIS mutagenicity, Ames/micronucleus/aberration tests
Experiment: CCRIS mutagenicity studies

C#C[C@]1(O)CC[C@H]2[C@@H]3CCc4cc(O)ccc4[C@H]3CC[C@@]21C
mutagenic call (End Point: IN VITRO CHROMOSOMAL ABERRATIONS, Test System: CHINESE HAMSTER CELL DON (22;XY), Metabolic Activation: NONE): active; positive (ploidy changes)
mutagenic call (End Point: IN VITRO CHROMOSOMAL ABERRATIONS, Test System: CHO CELLS, Metabolic Activation: NONE): active; positive
mutagenic call (End Point: IN VITRO CHROMOSOMAL ABERRATIONS, Test System: HUMAN (FEMALE) PERIPHERAL BLOOD LYMPHOCYTES, Metabolic Activation: NONE): inactive; negative
mutagenic call (End Point: IN VITRO CHROMOSOMAL ABERRATIONS, Test System: HUMAN (FEMALE) PERIPHERAL BLOOD LYMPHOCYTES, Metabolic Activation: RAT, LIVER, S-9, NO NADP): inactive; negative
mutagenic call (End Point: IN VITRO CHROMOSOMAL ABERRATIONS, Test System: HUMAN (FEMALE) PERIPHERAL BLOOD LYMPHOCYTES, Metabolic Activation: RAT, LIVER, S-9, WITH NADP ADDITION): active; positive (structural changes)
mutagenic call (End Point: IN VITRO CHROMOSOMAL ABERRATIONS, Test System: HUMAN PERIPHERAL LYMPHOCYTES, Metabolic Activation: NONE): inactive; negative
mutagenic call (End Point: IN VITRO CHROMOSOMAL ABERRATIONS, Test System: HUMAN PERIPHERAL LYMPHOCYTES, Metabolic Activation: RAT, LIVER, S-9, AROCLOR 1254): inactive; negative
mutagenic call (End Point: IN VIVO MICRONUCLEUS, Test System: BONE MARROW POLYCHROMATIC ERYTHROCYTES, Species: MOUSE, Strain/Sex: NMRI/FEMALE, Route: INTRAGASTRIC): inactive; negative
mutagenic call (End Point: IN VIVO MICRONUCLEUS, Test System: BONE MARROW POLYCHROMATIC ERYTHROCYTES, Species: MOUSE, Strain/Sex: SWISS ALBINO, Route: ORAL (GAVAGE)): inactive; negative
mutagenic call (Test System: AMES SALMONELLA TYPHIMURIUM, Strain/Indicator: TA97, Metabolic Activation: HAMSTER, LIVER, S-9, AROCLOR 1254 (10 OR 30%), Method: PREINCUBATION): inactive; negative
mutagenic call (Test System: AMES SALMONELLA TYPHIMURIUM, Strain/Indicator: TA97, Metabolic Activation: NONE, Method: PREINCUBATION): inactive; negative
mutagenic call (Test System: AMES SALMONELLA TYPHIMURIUM, Strain/Indicator: TA97, Metabolic Activation: RAT, LIVER, S-9, AROCLOR 1254 (10%), Method: PREINCUBATION): inactive; negative
mutagenic call (Test System: AMES SALMONELLA TYPHIMURIUM, Strain/Indicator: TA97, Metabolic Activation: RAT, LIVER, S-9, AROCLOR 1254 (30%), Method: PREINCUBATION): inactive; negative
mutagenic call (Test System: AMES SALMONELLA TYPHIMURIUM, Strain/Indicator: TA98, Metabolic Activation: HAMSTER, LIVER, S-9, AROCLOR 1254 (10 OR 30%), Method: PREINCUBATION): inactive; negative
mutagenic call (Test System: AMES SALMONELLA TYPHIMURIUM, Strain/Indicator: TA98, Metabolic Activation: MOUSE, LIVER, S-9, Method: STANDARD PLATE): inactive; negative
mutagenic call (Test System: AMES SALMONELLA TYPHIMURIUM, Strain/Indicator: TA98, Metabolic Activation: NONE): inactive; negative
mutagenic call (Test System: AMES SALMONELLA TYPHIMURIUM, Strain/Indicator: TA98, Metabolic Activation: NONE, Method: PREINCUBATION): inactive; negative
mutagenic call (Test System: AMES SALMONELLA TYPHIMURIUM, Strain/Indicator: TA98, Metabolic Activation: NONE, Method: STANDARD PLATE): inactive; negative
mutagenic call (Test System: AMES SALMONELLA TYPHIMURIUM, Strain/Indicator: TA98, Metabolic Activation: RAT, LIVER, S-9, AROCLOR 1254 (10%), Method: PREINCUBATION): inactive; negative
mutagenic call (Test System: AMES SALMONELLA TYPHIMURIUM, Strain/Indicator: TA98, Metabolic Activation: RAT, LIVER, S-9, AROCLOR 1254 (30%), Method: PREINCUBATION): inactive; negative
mutagenic call (Test System: AMES SALMONELLA TYPHIMURIUM, Strain/Indicator: TA98, Metabolic Activation: RAT, LIVER, S-9, AROCLOR 1254, Method: STANDARD PLATE): inactive; negative
mutagenic call (Test System: AMES SALMONELLA TYPHIMURIUM, Strain/Indicator: TA98, Metabolic Activation: S-9): inactive; negative
mutagenic call (Test System: AMES SALMONELLA TYPHIMURIUM, Strain/Indicator: TA100, Metabolic Activation: HAMSTER, LIVER, S-9, AROCLOR 1254 (10 OR 30%), Method: PREINCUBATION): inactive; negative
mutagenic call (Test System: AMES SALMONELLA TYPHIMURIUM, Strain/Indicator: TA100, Metabolic Activation: MOUSE, LIVER, S-9, Method: STANDARD PLATE): inactive; negative
mutagenic call (Test System: AMES SALMONELLA TYPHIMURIUM, Strain/Indicator: TA100, Metabolic Activation: NONE): inactive; negative
mutagenic call (Test System: AMES SALMONELLA TYPHIMURIUM, Strain/Indicator: TA100, Metabolic Activation: NONE, Method: PREINCUBATION): inactive; negative
mutagenic call (Test System: AMES SALMONELLA TYPHIMURIUM, Strain/Indicator: TA100, Metabolic Activation: NONE, Method: STANDARD PLATE): inactive; negative
mutagenic call (Test System: AMES SALMONELLA TYPHIMURIUM, Strain/Indicator: TA100, Metabolic Activation: RAT, LIVER, S-9, AROCLOR 1254 (10%), Method: PREINCUBATION): inactive; negative
mutagenic call (Test System: AMES SALMONELLA TYPHIMURIUM, Strain/Indicator: TA100, Metabolic Activation: RAT, LIVER, S-9, AROCLOR 1254 (30%), Method: PREINCUBATION): inactive; negative
mutagenic call (Test System: AMES SALMONELLA TYPHIMURIUM, Strain/Indicator: TA100, Metabolic Activation: RAT, LIVER, S-9, AROCLOR 1254, Method: STANDARD PLATE): inactive; negative
mutagenic call (Test System: AMES SALMONELLA TYPHIMURIUM, Strain/Indicator: TA100, Metabolic Activation: S-9): inactive; negative
mutagenic call (Test System: AMES SALMONELLA TYPHIMURIUM, Strain/Indicator: TA1535, Metabolic Activation: HAMSTER, LIVER, S-9, AROCLOR 1254 (10 OR 30%), Method: PREINCUBATION): inactive; negative
mutagenic call (Test System: AMES SALMONELLA TYPHIMURIUM, Strain/Indicator: TA1535, Metabolic Activation: MOUSE, LIVER, S-9, Method: STANDARD PLATE): inactive; negative
mutagenic call (Test System: AMES SALMONELLA TYPHIMURIUM, Strain/Indicator: TA1535, Metabolic Activation: NONE): inactive; negative
mutagenic call (Test System: AMES SALMONELLA TYPHIMURIUM, Strain/Indicator: TA1535, Metabolic Activation: NONE, Method: PREINCUBATION): inactive; negative
mutagenic call (Test System: AMES SALMONELLA TYPHIMURIUM, Strain/Indicator: TA1535, Metabolic Activation: NONE, Method: STANDARD PLATE): inactive; negative
mutagenic call (Test System: AMES SALMONELLA TYPHIMURIUM, Strain/Indicator: TA1535, Metabolic Activation: RAT, LIVER, S-9, AROCLOR 1254 (10%), Method: PREINCUBATION): inactive; negative
mutagenic call (Test System: AMES SALMONELLA TYPHIMURIUM, Strain/Indicator: TA1535, Metabolic Activation: RAT, LIVER, S-9, AROCLOR 1254 (30%), Method: PREINCUBATION): inactive; negative
mutagenic call (Test System: AMES SALMONELLA TYPHIMURIUM, Strain/Indicator: TA1535, Metabolic Activation: RAT, LIVER, S-9, AROCLOR 1254, Method: STANDARD PLATE): inactive; negative
mutagenic call (Test System: AMES SALMONELLA TYPHIMURIUM, Strain/Indicator: TA1535, Metabolic Activation: S-9): inactive; negative
mutagenic call (Test System: AMES SALMONELLA TYPHIMURIUM, Strain/Indicator: TA1537, Metabolic Activation: MOUSE, LIVER, S-9, Method: STANDARD PLATE): inactive; negative
mutagenic call (Test System: AMES SALMONELLA TYPHIMURIUM, Strain/Indicator: TA1537, Metabolic Activation: NONE): inactive; negative
mutagenic call (Test System: AMES SALMONELLA TYPHIMURIUM, Strain/Indicator: TA1537, Metabolic Activation: NONE, Method: STANDARD PLATE): inactive; negative
mutagenic call (Test System: AMES SALMONELLA TYPHIMURIUM, Strain/Indicator: TA1537, Metabolic Activation: RAT, LIVER, S-9, AROCLOR 1254, Method: STANDARD PLATE): inactive; negative
mutagenic call (Test System: AMES SALMONELLA TYPHIMURIUM, Strain/Indicator: TA1537, Metabolic Activation: S-9): inactive; negative
mutagenic call (Test System: AMES SALMONELLA TYPHIMURIUM, Strain/Indicator: TA1538, Metabolic Activation: MOUSE, LIVER, S-9, Method: STANDARD PLATE): inactive; negative
mutagenic call (Test System: AMES SALMONELLA TYPHIMURIUM, Strain/Indicator: TA1538, Metabolic Activation: NONE, Method: STANDARD PLATE): inactive; negative
mutagenic call (Test System: AMES SALMONELLA TYPHIMURIUM, Strain/Indicator: TA1538, Metabolic Activation: RAT, LIVER, S-9, AROCLOR 1254, Method: STANDARD PLATE): inactive; negative
mutagenic call (Test System: E. COLI, Strain/Indicator: WP2 UVRA, Metabolic Activation: HAMSTER, LIVER, S-9, AROCLOR 1254, Method: STANDARD PLATE): inactive; negative
mutagenic call (Test System: E. COLI, Strain/Indicator: WP2 UVRA, Metabolic Activation: HAMSTER, LIVER, S-9, Method: STANDARD PLATE): inactive; negative
mutagenic call (Test System: E. COLI, Strain/Indicator: WP2 UVRA, Metabolic Activation: MOUSE, LIVER, S-9, AROCLOR 1254, Method: STANDARD PLATE): inactive; negative
mutagenic call (Test System: E. COLI, Strain/Indicator: WP2 UVRA, Metabolic Activation: MOUSE, LIVER, S-9, Method: STANDARD PLATE): inactive; negative
mutagenic call (Test System: E. COLI, Strain/Indicator: WP2 UVRA, Metabolic Activation: NONE): inactive; negative
mutagenic call (Test System: E. COLI, Strain/Indicator: WP2 UVRA, Metabolic Activation: NONE, Method: STANDARD PLATE): inactive; negative
mutagenic call (Test System: E. COLI, Strain/Indicator: WP2 UVRA, Metabolic Activation: RAT, LIVER, S-9, AROCLOR 1254, Method: STANDARD PLATE): inactive; negative
mutagenic call (Test System: E. COLI, Strain/Indicator: WP2 UVRA, Metabolic Activation: RAT, LIVER, S-9, Method: STANDARD PLATE): inactive; negative
mutagenic call (Test System: E. COLI, Strain/Indicator: WP2 UVRA, Metabolic Activation: S-9): inactive; negative
